The source of these data is US8299085B2, “Quinazoline derivatives” (Novartis AG, priority 2004, dated 2012).

As usually defined, the melting point is the temperature of the solid-liquid transition.

In data set [1] the test system is patients with diabetic neuropathy. The experiment in a line: Clinical study, chronic pain in patients with diabetic neuropathy. Particulars: 2400 mg/day, Maintenance and Follow-up Periods, statistically significant. The class given is in vivo, human. The procedure: Patients are randomized to receive 2400 mg/day of the compound or placebo in a 1:1 ratio.
The study consists of a Pre-randomization Phase (1 week) and a Double-blind Phase (5 weeks). The double-blind Phase consists of three periods: a one week Titration Period, a three-week Maintenance Period and a one-week Follow-up Period.
During the 1-week Pre-randomization Phase, the eligibility of the patients is evaluated. Patients meeting all inclusion/exclusion criteria are randomized to either the compound or placebo in the Double-blind Phase. During the 1-week Titration Period, study medication is up-titrated from 800 mg/day (given b.i.d.) to 2400 mg/day (given b.i.d.). Patients who complete the 1-week Titration Period then enter the 3-week Maintenance Period. Patients who complete the 3-week Maintenance period or prematurely discontinue double-blind treatment then enter the 1-week Follow-up Period. Study medication is completely withdrawn on entry into the Follow-up Period. During the Double-blind Phase, serial efficacy and safety assessments are obtained. […]
The SF-MPQ total pain score at the end of the Maintenance Period is analyzed using an analysis of covariance model adjusting for the effect of treatment on post-treatment scores by using the baseline SF-MPQ total pain score as a covariate. Average weekly pain severity is analyzed using an analysis of covariance model with repeated measures using the treatment week and the mean pain severity rating during the Pre-randomization Phase as covariates. Usage of rescue medication during the Double-blind Phase is analyzed using the Cochran-Mantel-Haenszel test controlling for center. The mean pain severity rating during the Follow-up Period (rebound pain) is analyzed using an analysis of covariance model adjusting for the effect of treatment on the mean pain severity rating of the Follow-up Period with the mean pain severity rating during the Prerandomization Phase as a covariate.

Data set [2] relates to Wistar Kyoto rats. The experiment in a line: Test 2: NMDA-channel blocker induced head swaying and circling. The class given is in vivo, rat. The following applies: 10 mg/kg s.c., alone. The procedure: Adult male Wistar Kyoto rats (340-380 g; Iffa Credo, Lyon, France) are used. The animals are randomized to the following treatment groups (n=10 per group): the compound (dosed 0, 3 or 10 mg/kg) followed by phencyclidine (PCP; an NMDA channel blocker, dosed 0 or 10 mg/kg). Compound (at t=−15 min) and PCP (at t=0 min) are administered s.c. in a volume of 1 ml/kg. Video-recordings of the animals behaviour over the period 0-30 min following PCP are scored by an observer who is unaware about the animals pretreatment. Head-swaying (rocking the head repeatedly by at least 2 cm left and right) and circling (turning around by using the forepaws, whereas the hindpaws remain more or less on the original position) are scored as present (1) or absent (0), every five minutes for the duruation of 1 minute. The scores for individual animals is summed and group scores used for statistical analysis (t-test with Bonferroni correction).

The subject of data set [3] is Wistar Kyoto rats. The experiment in a line: Test 1: NMDA-antagonist induced locomotion. Particulars: 10 mg/kg s.c. The class given is in vivo, rat. The protocol:
Male Wistar Kyoto rats (Iffa Crédo, Lyon, France) weighing between 250 and 310 g are used. In principle 4 treatment groups are formed: 1) the compound (doses 1, 3 or 10 mg/kg) followed by the competitive NMDA receptor antagonist (S)-2-amino-3-(2′-chloro-5-phosphonomethyl-biphenyl-3-yl)-propionic acid, hereinafter SDZ 220-581 (10 mg/kg), 2) solvent-pretreatment followed by SDZ 220-581 (10 mg/kg), 3) solvent followed by solvent, 4) the compound (1, 3, 10 mg/kg) followed by solvent. Rats are randomly allocated to these pretreatment groups (n=10/dose group). Drugs are administered subcutaneous (s.c.), 15 min prior to SDZ 220-581. Immediately after the animals received SDZ 220-581, they are placed into the activity monitor for a period of 60 min. Locomotor activity is analysed over the initial 30 minutes.
Locomotion is recorded with a videotracking system (VideoMot2, TSE Technical and Scientific Equipment GmbH, Bad Hombourg, Germany), using a closed circuit digital videocamera (WV-BP.330/GE, Panasonic, Osaka, Japan). The video-signal from the camera is digitized and used for data analysis. […] The camera is placed such, that four animals (one per arena) can be recorded simultaneously.

Consider `CS(=O)(=O)Nn1c(=O)[nH]c2cc(C(F)(F)F)c(N3CCOCC3)cc2c1=O` [Example 68, N-(6-Morpholin-4-yl-2,4-dioxo-7-trifluoromethyl-1,4-dihydro-2H-quinazolin-3-yl) -methanesulfonamide], for which, in data set [1], the “pain severity ratings relative to placebo” value is given as “decrease pain severity ratings relative to placebo”.

Regarding `CS(=O)(=O)Nn1c(=O)[nH]c2cc(C(F)(F)F)c(N3CCCOCC3)cc2c1=O` [Example 75, N-(6-[1,4]Oxazepan-4-yl-2,4-dioxo-7-trifluoromethyl-1,4-dihydro-2H-quinazolin-3-yl)-methanesulfonamide], the “pain severity ratings relative to placebo” value in data set [1] is given as “decrease pain severity ratings relative to placebo”.

For the compound `CS(=O)(=O)Nn1c(=O)[nH]c2cc(C(F)(F)F)c(Oc3cccnc3)cc2c1=O` [Example 80, N-[2,4-Dioxo-6-(pyridin-3-yloxy)-7-trifluoromethyl-1,4-dihydro-2H-quinazolin-3-yl]-methanesulfonamide], the melting point was in the range of 194 to 196 °C.

For the compound `CN(C)c1cc2c(=O)n(NS(C)(=O)=O)c(=O)[nH]c2cc1C(F)(F)F` [Example 81, N-(6-Dimethylamino-2,4-dioxo-7-trifluoromethyl-1,4-dihydro-2H-quinazolin-3-yl)-methanesulfonamide], the melting point lay within 254 to 272 °C.

`CS(=O)(=O)Nn1c(=O)[nH]c2cc(C(F)(F)F)c(NCCO)cc2c1=O` [Example 82, N-[6-(2-Hydroxy-ethylamino)-2,4-dioxo-7-trifluoromethyl-1,4-dihydro-2H-quinazolin-3-yl]-methanesulfonamide]: the melting point is 240 to 246 °C.

Take `CN(CCO)c1cc2c(=O)n(NS(C)(=O)=O)c(=O)[nH]c2cc1C(F)(F)F` [Example 83, N-{6-[(2-Hydroxy-ethyl)-methyl-amino]-2,4-dioxo-7-trifluoromethyl-1,4-dihydro-2H-quinazolin-3-yl}-methanesulfonamide]: in data set [1], the “pain severity ratings relative to placebo” value is “decrease pain severity ratings relative to placebo”.

The compound `COc1ccc(-c2cn(-c3cc4c(=O)n(NS(C)(=O)=O)c(=O)[nH]c4cc3C(F)(F)F)cn2)cc1` [Example 84, N-{6-[4-(4-Methoxy-phenyl)-imidazol-1-yl]-2,4-dioxo-7-trifluoromethyl-1,4-dihydro-2H-quinazolin-3-yl}-methanesulfonamide] registered a melting point of 293 to 294 °C.

As to `COCc1ccc(-c2cn(-c3cc4c(=O)n(NS(C)(=O)=O)c(=O)[nH]c4cc3C(F)(F)F)cn2)cc1` [Example 85, N-{6-[4-(4-Methoxymethyl-phenyl)-imidazol-1-yl]-2,4-dioxo-7-trifluoromethyl-1,4-dihydro-2H-quinazolin-3-yl}-methanesulfonamide], the melting point lay in the range of 252 to 257 °C.

`COC(=O)c1cn(-c2cc3c(=O)n(NS(C)(=O)=O)c(=O)[nH]c3cc2C(F)(F)F)cn1` [Example 88, 1-(3-methanesulfonylamino-2,4-dioxo-7-trifluoromethyl-1,2,3,4-tetrahydro-quinazolin-6-yl)-1H-imidazole-4-carboxylic acid methyl ester]: the melting point fell in the range of 287 to 288 °C.

`CN(C)C(=O)c1cn(-c2cc3c(=O)n(NS(C)(=O)=O)c(=O)[nH]c3cc2C(F)(F)F)cn1` [Example 90, 1-(3-Methanesulfonylamino-2,4-dioxo-7-trifluoromethyl-1,2,3,4-tetrahydro-quinazolin-6-yl)-1H-imidazole-4-carboxylic acid dimethylamide] came in with a melting point of 284 to 286 °C.

In turn, `CNC(=O)c1cn(-c2cc3c(=O)n(NS(C)(=O)=O)c(=O)[nH]c3cc2C(F)(F)F)cn1` [Example 91, 1-(3-Methanesulfonylamino-2,4-dioxo-7-trifluoromethyl-1,2,3,4-tetrahydro-quinazolin-6-yl)-1H-imidazole-4-carboxylic acid methylamide] registered a melting point of 292 to 295 °C.

`CS(=O)(=O)Nn1c(=O)[nH]c2cc(C(F)(F)F)c(-n3cnc(CO)c3)cc2c1=O` [Example 93, N-[6-(4-Hydroxymethyl-imidazol-1-yl)-2,4-dioxo-7-trifluoromethyl-1,4-dihydro-2H-quinazolin-3-yl]-methanesulfonamide] gave a melting point of 225 to 230 °C.

For `CS(=O)(=O)Nn1c(=O)[nH]c2cc(C(F)(F)F)c(-n3cnc(Br)c3)cc2c1=O` [Example 95, N-[6-(4-Bromo-imidazol-1-yl)-2,4-dioxo-7-trifluoromethyl-1,4-dihydro-2H-quinazolin-3-yl]-methanesulfonamide], the melting point was in the range of 229 to 233 °C.

`CS(=O)(=O)Nn1c(=O)[nH]c2cc(C(F)(F)F)c(-n3cnc(C(F)(F)F)c3)cc2c1=O` [Example 96, N-[6-(4-Trifluoromethyl-imidazol-1-yl)-2,4-dioxo-7-trifluoromethyl-1,4-dihydro-2H-quinazolin-3-yl]-methanesulfonamide]: the melting point was in the range of 144 to 147 °C.

The compound `COC(=O)Nc1cc2c(=O)n(NS(C)(=O)=O)c(=O)[nH]c2cc1C(F)(F)F` [Example 101, (3-Methanesulfonylamino-2,4-dioxo-7-trifluoromethyl-1,2,3,4-tetrahydro-quinazolin-6-yl)carbamic acid methyl ester] had a melting point of 232.4 to 240.2 °C.

In the case of `c1ccc(C2(N3CCCCC3)CCCCC2)cc1` [PCP, phencyclidine], in the data set with Wistar Kyoto rats [2], the head-swaying and circling entry is “induces weak head-swaying and circling”.

Turning to `N[C@@H](Cc1cc(CP(=O)(O)O)cc(-c2ccccc2Cl)c1)C(=O)O` [SDZ 220-581, (S)-2-amino-3-(2′-chloro-5-phosphonomethyl-biphenyl-3-yl)-propionic acid], the “distance walked during 30 min” value with Wistar Kyoto rats [3] is given as “approximately 30 m”.
